For one assay, the system named is SHH expression. The assay can be described thus: Pancreatic SHH mRNA expression (qPCR) in P48-Cre; LSL-K-rasG12D mice. As to conditions: 60 mg/kg/day IP x 10 days, mice 7-9 months old, vs untreated age-matched mice, n=1/group. It is filed as in vivo, mouse. The procedure:
FIG. 19. ATM inhibits induction of SHH expression in mPanINs of P48-Cre; LSL-K-ras^G12D mice. Three older P48-Cre; LSL-K-ras^G12D mice (7-9 months of age) were administered ATM (60 mg/kg/day) by IP injection for 10 days. mRNA was isolated from pancreata from treated, and untreated, age-matched P48-Cre; LSL-K-ras^G12D mice and analyzed by qPCR analysid for expression of SHH. n=1/group.
(§1) ATM reduced mPanIN proliferation and SHH expression. In order to investigate the potential therapeutic role of ATM in pancreatic cancer, acute ATM treatment (60 mg/kg/day×10 days) of older P48-Cre; LSL-K-rasG12D mice (PC/+, Ras/+; 7-9 months old, they have already developed PanINs and adenomas) was performed. […] These same mice were analyzed for pancreatic expression of SHH. SHH increased in expression in P48-Cre; LSL-K-rasG12D mice, similar to PKCι.

Assay [1] deals with mPanINs of P48-Cre; LSL-K-rasG12D mice. The assay can be described thus: mPanIN proliferation by BrdU incorporation (IHC) in P48-Cre; LSL-K-rasG12D mice. To be noted: 60 mg/kg/day IP x 10 days, mice 7-9 months old, vs untreated age-matched mice, n=3/group. It is filed as in vivo, mouse. On the procedure:
FIG. 18. ATM inhibits proliferation of mPanINs in P48-Cre; LSL-K-ras^G12D mice. Three older P48-Cre; LSL-K-ras^G12D mice (7-9 months of age) were administered ATM (60 mg/kg/day) by IP injection for 10 days. Mice were injected with BrdU prior to sacrifice. Pancreata were isolated and analyzed by IHC for BrdU incorporation, as an indicator of the proliferative activity of the tissue. BrdU incorporation was compared to untreated, age-matched P48-Cre; LSL-K-ras^G12D mice. n=3/group.
as §1
On the technique in general: Dividing cells build labelled thymidine or BrdU into new DNA.

For assay [2], the system named is Panc-1, Capan-1, and MiaPaCa-2 human pancreatic cancer cells. As to the kind of experiment: Soft agar colony formation (anchorage-independent growth). The assay is classed as cell-based. To be noted: range over three PDAC cell lines (Panc-1, Capan-1, Miapaca-2); increasing concentrations. On the procedure: (§2) FIG. 13. Aurothiomalate (ATM) inhibits PDAC cells soft agar colony formation and invasion. A) Dose response curves to the growth inhibitory effects of ATM on soft agar colony formation in Panc-1, Capan-1, and MiaPaCa-2 human pancreatic cancer cells. B) Panc-1 cells were pre-incubated in increasing concentrations of ATM and then assayed for in vitro invasion through Matrigel matrix.
Panc-1 and MiaPaCa-2 cells (5×10^3) were plated in soft agar and assessed for anchorage-independent growth as described elsewhere (Regala et al., J. Biol. Chem., 280:31109-15 (2005)).
(§3) Three PDAC cell lines (Panc-1, Capan-1, and Miapaca-2), expressing varying amounts of PKCι (FIG. 13), were assayed for the ability to form colonies in soft agar (anchorage-independent growth) in the presence of increasing concentrations of aurothiomalate (ATM, FIG. 13A).

A further assay deals with Panc-1 cells. The assay can be described thus: In vitro invasion through Matrigel matrix. It is filed as cell-based, human. As to conditions: 48 hour pre-incubation. The procedure: as §2, §3

The results in this text go back to patent publication US20110190390A1, “METHODS AND MATERIALS FOR TREATING PANCREATIC CANCER” (priority 2010, published 2011).

As usually defined, the IC50 is the concentration at which inhibition is half-maximal. A lower IC50 goes with greater potency. As to `O=C(O)CC([S-])C(=O)O.[Au+]` (stereo not shown) [ATM, aurothiomalate], the “pancreatic SHH expression” value in the assay on SHH expression is given as “significantly reduced”. Further, in assay [1], the “proliferation in the mPanINs (BrdU incorporation)” value is “significantly reduced”. Also, the values for the IC50 (in assay [2]; with Panc-1 cells) were 20 to 61 µM and 7.4 µM, respectively.
